In patent US8765679B2, “Extract and peptides derived from Oryza sativa Japonica Group and uses thereof” (Yissum Research Development Company of The Hebrew …, priority 2010, dated 2014):
Entries after “also recorded” stand apart in the source; their conditions may differ.

Assays:
[1] = test system: EAE mice; assay: Experimental autoimmune encephalitis (EAE) induced with MOG peptide 35-55, neurological score; format: in vivo, Female C57BL/6 mice; conditions: for neurological score / neurological symptoms: oral 100 μg/kg, FIG. 2C, FIG. 3
[2] = test system: mouse peritoneal macrophages; assay: Oxidative burst of PMA-activated peritoneal macrophages (luminescence); format: cell-based; conditions: for oxidative burst in activated macrophages (luminescence): added 1 minute after PMA, FIG. 6
Description: Mice were injected i.p. with thioglycolate. Peritoneal macrophages were obtained and incubated with horse-reddish peroxidase and luminol. The reaction started by the addition of phorbol myristate acetate (PMA) and 1 minute later RA1 was added. Luminescence measurement was started after PMA addition. Each cycle represents 74 seconds.
Mice were injected ip with 1.5 ml thioglycolate (29.8 g/l). Peritoneal macrophages were obtained and incubated (2.5×10^6 cells/ml) in HBSS with 2 μl of 1 mM CoCl2, 2 μl 100 mM Na2SeO3, 2 μl of 10 mM luminal. The reaction started by the addition of 5 μl of 100 μM phorbol myristate acetate (PMA) (final concentration of 2.5 μM) and one minute later RA1 was added. Luminescence measurement was started after PMA addition. Each cycle represents 74 seconds.

[3] = test system: Murine naïve CD4 cells; assay: Cytokine profile of RA1-treated CD4 cells (ELISA of supernatants); format: cell-based; conditions: anti-CD3/anti-CD28/IL2-activated CD4 cells, supernatants at 72 h
Description: Murine lymph nodes and/or spleens were mashed, harvested and single cell suspension was passed through a […] cell strainer and washed. Murine naïve CD4 cells were MACS separated using Miltenyi CD4 beads (Miltenyi Biotec GmbH, Bergisch Gladbach, ermany) according to manufacture instructions. Isolated T cells were seeded and activated with anti-CD3 […] and anti-CD28 […] (BD Biosciences, San Jose, Calif., USA) in the presence of IL2 (10 U/ml), (PeproTech Inc, Rocky Hill, N.J., USA). For cytokine production and RA1 determination supernatants were collected for ELISA. Cytokine analysis was performed in supernatants at 72 h using commercial kits: IFNγ, IL12 and IL4 (Perpotech), IL-17 (R&D systems) and IL10 (BD Biosciences).

[4] = test system: carrageenan-induced hind paw swelling; assay: Carrageenan-induced hind paw swelling; format: in vivo; conditions: 30 minutes prior to carrageenan, FIG. 5
Description: RA1 or saline were injected 30 minutes prior to carrageenan injection into the subplantar area. The diameter of the subplantar area was measured every 60 minutes by a micrometer. […] The effect of RA1 was tested in an animal model for inflammation. Inflammation induced by carrageenan, is acute, well-researched, and highly reproducible. Cardinal signs of inflammation edema, hyperalgesia, and erythema develop immediately following subcutaneous injection, resulting from action of proinflammatory agents bradykinin, histamine, tachykinins, complement and reactive oxygen, and nitrogen species. The inflammatory response is usually quantified by increase in paw size (edema). RA1 or its vehicle, i.e., saline, was injected ip 30 minutes prior to carrageenan treatment. Carrageenan (50 μl of 3 mg/ml) was injected into the subplantar area of both limbs of each animal. The diameter of the subplantar area was measured every 60 minutes by a micrometer. The degree of swelling was assessed by the difference between thicknesses measured after and prior to carrageenan injection (zero time).

[5] = test system: experimental model of MS; conditions: intravenous and oral administrations; cited from earlier work
[6] = 3 times a week, starting 7 days after MOG immunization

AEMIDLAAKMLSEG (ORYZA SATIVA JAPONICA) [RA4]
neurological score / neurological symptoms [1, 6]: reduction of the neurological score

AEMIDLAAKMLSEGR (ORYZA SATIVA JAPONICA) [RA3]
neurological score / neurological symptoms [1, 6]: reduction of the neurological score

AEMIDLAAKMLSEGRG (ORYZA SATIVA JAPONICA) [RA1, 16-mer peptide, amino acid residues 217-232 of Oryza sativa Japonica Group]
oxidative burst in activated macrophages (luminescence) ([2]; 0.1 ng/ml): less effective
oxidative burst in activated macrophages (luminescence) ([2]; 1.0 ng/ml): less effective
oxidative burst in activated macrophages (luminescence) ([2]; 10 ng/ml): strongly inhibited
hydroxyl radical scavenger ([2]; summary statement referring to Example 6): highly effective
IFNγ production ([3]; FIG. 10A): reduction
IL17 production ([3]; FIG. 10B): reduction
IL4 production ([3]; FIG. 10C): elevation
IL10 production ([3]; FIG. 10D): elevation
swelling induced after the carrageenan injection ([4]; one dose 1.0 μg/kg ip): significantly reduced
swelling induced after the carrageenan injection ([4]; one dose 10 μg/kg ip): significantly reduced
neurological score ([1]; i.p. 0.1 μg/kg, three times a week, starting seven days after MOG immunization, FIG. 4): an increased effect
neurological score ([1]; i.v., once on the day of MOG immunization, FIG. 2A): significantly improved
neurological score / neurological symptoms [1, 6]: beneficial in reducing the neurological symptoms; also recorded: an increased effect

EMIDLAAKMLSEGRG (ORYZA SATIVA JAPONICA) [RA2]
neurological score ([1]; i.p. 1 μg/kg, 3 times a week, starting 7 days after MOG immunization, FIG. 2B, FIG. 4): reduction of the neurological score

KGHYAERVG (listed as Homo sapiens) [IIIM1, 9-mer peptide derived from human histone H2A]
neurological symptoms in the diseased mice [5]: significantly ameliorated the neurological symptoms
